One test has as its system Ba/F3-EGFR-WT cells. In words: Proliferation assay in BA/F3 (wild type) cells (Cell Titer-Glo). Type of test: cell-based. The procedure:
(§1) Cellular Data Description (WT, insSVD, Ins ASV)
(§2) Plates were incubated at 37° C. for 48 h. Retrovirus was harvested by filtering the media supernatant through a 0.45 μm filter.
(§3) Ba/F3 cells purchased from DSMZ were grown in RPMI+10% FBS+10 ng/mL IL-3 and infected with filtered retroviral supernatant at a 1:2 dilution. Polybrene was added to a concentration of 8 μg/mL, plates were spun for 90 min, and incubated overnight at 37° C. 2 μg/mL puromycin was added to the infected cells 24 h after infection and cells were continually grown in the presence of puromycin and 10 ng/mL IL-3. Following stably expressing Ba/F3 cell lines were generated: Ba/F3-EGFR-WT, Ba/F3-EGFR-insSVD.
(§4) The cells ectopically expressing WT EGFR were plated with 10 ng/mL Millipore Culture grade EGF. The cells ectopically expressing EGFR-insSVD were plated without EGF.
(§5) 100 nL of compound was added to each well using a 100 nL pin head, and plates were incubated at 37° C. for 48 h.
(§6) Cell viability was measured by adding 30 μL of Cell Titer-Glo Luminescent Cell Viability Reagent. Plates were sealed with Perkin Elmer Top-Seal, inverted several times to mix, and immediately centrifuged at 1000 rpm for 2 min. Plates were incubated in low light conditions for 8-10 min and luminescence was measured.

The next test concerns Ba/F3-EGFR-insSVD cells. In words: Proliferation assay in BA/F3 (ins SVD) cells (Cell Titer-Glo). It counts as cell-based. The procedure:
as §1, §2, §3, §4, §5, §6
In general terms: In ATP-based viability assays light output follows the ATP content of the culture.

The target of test [1] is EGFR ins SVD (insertion of SVD between D770 and N771) (Homo sapiens, UniProt P00533, INS767SVD). In words: Exon 20-Mutant-EGFR(D770_N771insSVD) kinase assay (TR-FRET). Type of test: biochemical. The following applies: Table 9; read-out: mutEGFR (D770_N771insSVD) kinase assay IC50.
EGFR ins SVD (insertion of SVD between D770 and N771), sequence (P00533 with tags, fused parts or gaps INS767SVD limits assumed): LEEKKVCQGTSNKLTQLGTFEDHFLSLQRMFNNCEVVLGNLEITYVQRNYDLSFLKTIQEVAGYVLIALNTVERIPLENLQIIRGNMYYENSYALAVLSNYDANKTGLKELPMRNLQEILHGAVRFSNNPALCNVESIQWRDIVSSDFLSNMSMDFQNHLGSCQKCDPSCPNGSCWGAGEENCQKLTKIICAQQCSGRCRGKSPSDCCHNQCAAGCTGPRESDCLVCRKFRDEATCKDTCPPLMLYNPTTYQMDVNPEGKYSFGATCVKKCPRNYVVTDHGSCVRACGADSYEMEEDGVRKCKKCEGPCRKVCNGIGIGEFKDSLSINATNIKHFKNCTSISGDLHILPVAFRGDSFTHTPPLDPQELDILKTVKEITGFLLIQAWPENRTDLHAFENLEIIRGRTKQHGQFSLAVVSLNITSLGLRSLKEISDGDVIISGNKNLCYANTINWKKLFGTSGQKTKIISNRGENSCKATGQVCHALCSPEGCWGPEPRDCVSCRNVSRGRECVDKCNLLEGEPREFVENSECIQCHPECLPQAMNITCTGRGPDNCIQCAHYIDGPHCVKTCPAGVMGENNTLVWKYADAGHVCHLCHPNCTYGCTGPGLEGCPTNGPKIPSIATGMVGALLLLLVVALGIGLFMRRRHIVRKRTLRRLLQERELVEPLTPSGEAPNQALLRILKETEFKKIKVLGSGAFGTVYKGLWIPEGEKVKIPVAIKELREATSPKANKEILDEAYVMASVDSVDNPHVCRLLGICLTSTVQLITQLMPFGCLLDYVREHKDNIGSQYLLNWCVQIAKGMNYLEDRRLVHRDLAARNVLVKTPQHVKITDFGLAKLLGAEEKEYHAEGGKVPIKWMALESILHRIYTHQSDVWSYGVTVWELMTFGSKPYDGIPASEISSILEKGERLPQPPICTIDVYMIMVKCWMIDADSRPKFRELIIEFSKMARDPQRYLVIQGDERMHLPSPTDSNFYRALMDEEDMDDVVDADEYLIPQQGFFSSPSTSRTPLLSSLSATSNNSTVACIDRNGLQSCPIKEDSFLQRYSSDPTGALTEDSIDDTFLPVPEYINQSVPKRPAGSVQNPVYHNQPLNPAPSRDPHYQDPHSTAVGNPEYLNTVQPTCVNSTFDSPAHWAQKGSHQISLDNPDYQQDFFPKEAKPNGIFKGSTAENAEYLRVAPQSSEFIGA
Setting [2] is: Mus musculus, BaF3, 48 h, Table 10, plated with 10 ng/mL EGF.
[3] abbreviates: Mus musculus, BaF3, 48 h, Table 10, plated without EGF.
[4] abbreviates: Table 10, plated without EGF, 48 h.

Where “and” joins values, the source holds several entries; their conditions need not be identical. Equal entries are not always repeated.

For orientation: IC50 means the point on the concentration scale where inhibition reaches its midpoint.

For the compound `COC(C)(C)COc1cnccc1-c1[nH]c2c(c1Nc1cccc(F)c1C(F)(F)F)C(=O)NCC2` [Example 41, 3-[3-fluoro-2-(trifluoromethyl)anilino]-2-[3-(2-methoxy-2-methylpropoxy)pyridin-4-yl]-1,5,6,7-tetrahydro-4H-pyrrolo[3,2-c]pyridin-4-one], the results for the IC50 (with Ba/F3-EGFR-WT cells (setting [2]); in the test with Ba/F3-EGFR-insSVD cells (setting [3]); in test [1]) were 795 nM, 52.5 nM and 0.124 nM, respectively.

As to `O=C1NCCc2[nH]c(-c3ccncc3OCC3CCCCO3)c(Nc3cccc(Cl)c3Cl)c21` (stereo not drawn) [Example 69, 3-(2,3-dichloroanilino)-2-{3-[(oxan-2-yl)methoxy]pyridin-4-yl}-1,5,6,7-tetrahydro-4H-pyrrolo[3,2-c]pyridin-4-one], the values for the concentration for half-maximal inhibition (IC50) (in the test with Ba/F3-EGFR-WT cells (setting [2]); in the test on Ba/F3-EGFR-insSVD cells (setting [3]); in test [1]) were 290 nM, 12.4 nM and 0.106 nM, respectively.

Take `COc1c(F)cccc1Nc1c(-c2ccncc2OCC2CCCCN2C)[nH]c2c1C(=O)NCC2` (stereo not drawn) [Example 90, 3-(3-fluoro-2-methoxyanilino)-2-(3-{[1-methylpiperidin-2-yl]methoxy}pyridin-4-yl)-1,5,6,7-tetrahydro-4H-pyrrolo[3,2-c]pyridin-4-one]: the figures for the IC50 (in the test on Ba/F3-EGFR-WT cells (setting [2]); with Ba/F3-EGFR-insSVD cells (setting [3]); in test [1]) were 2660 nM, 29 nM and 0.69 nM, respectively.

Regarding `COc1c(Nc2c(-c3ccncc3OCC(C)(C)OC)[nH]c3c2C(=O)NCC3)ccc(F)c1Cl` [Example 44, 3-(3-chloro-4-fluoro-2-methoxyanilino)-2-[3-(2-methoxy-2-methylpropoxy)pyridin-4-yl]-1,5,6,7-tetrahydro-4H-pyrrolo[3,2-c]pyridin-4-one], the IC50 is 2450 nM in the test on Ba/F3-EGFR-WT cells (setting [2]); 173 nM with Ba/F3-EGFR-insSVD cells (setting [3]); 0.0922 nM and < 0.0725 nM in test [1].

In the case of `COc1c(Cl)cccc1Nc1c(-c2ccncc2OC[C@@H]2CCCN2C)[nH]c2c1C(=O)NCC2` [Example 48, 3-(3-chloro-2-methoxyanilino)-2-(3-{[(2S)-1-methylpyrrolidin-2-yl]methoxy}pyridin-4-yl)-1,5,6,7-tetrahydro-4H-pyrrolo[3,2-c]pyridin-4-one], the IC50 in the test on Ba/F3-EGFR-WT cells (setting [2]) came out at 276 nM; in the test on Ba/F3-EGFR-insSVD cells (setting [3]), 5.59 nM; in test [1], 0.358 nM.

Take `Cc1c(Cl)cccc1Nc1c(-c2ccncc2OCC(C)(C)N(C)C)[nH]c2c1C(=O)NCC2` [Example 60, 3-(3-chloro-2-methylanilino)-2-{3-[2-(dimethylamino)-2-methylpropoxy]pyridin-4-yl}-1,5,6,7-tetrahydro-4H-pyrrolo[3,2-c]pyridin-4-one]: the figures for the IC50 (in the test with Ba/F3-EGFR-WT cells (setting [2]); in the test with Ba/F3-EGFR-insSVD cells (setting [3]); in test [1]) were 1750 nM, 38.6 nM and 0.695 nM, respectively.

As for `COc1c(F)cccc1Nc1c(-c2ccncc2OCC2CCCO2)[nH]c2c1C(=O)NCC2` (single isomer, unassigned; enantiomer 1) [Example 88, 3-(3-fluoro-2-methoxyanilino)-2-{3-[(oxolan-2-yl)methoxy]pyridin-4-yl}-1,5,6,7-tetrahydro-4H-pyrrolo[3,2-c]pyridin-4-one (enantiomer 1)], the half-maximal inhibitory concentration (IC50) in the test with Ba/F3-EGFR-WT cells (setting [2]) stood at 388 nM; in the test on Ba/F3-EGFR-insSVD cells (setting [4]) it was 38 nM; in test [1], 0.0888 nM.

Turning to `COC(C)(C)COc1cnccc1-c1[nH]c2c(c1Nc1ccccc1Cl)C(=O)NCC2` [Example 39, 3-(2-chloroanilino)-2-[3-(2-methoxy-2-methylpropoxy)pyridin-4-yl]-1,5,6,7-tetrahydro-4H-pyrrolo[3,2-c]pyridin-4-one], the IC50 amounted to 661 nM in the test with Ba/F3-EGFR-WT cells (setting [2]), 27.5 nM in the test with Ba/F3-EGFR-insSVD cells (setting [3]) and 0.104 nM in test [1].

In the case of `Cc1c(Cl)cccc1Nc1c(-c2ccncc2OC[C@@H]2CCCN2C)[nH]c2c1C(=O)NCC2` [Example 77, 3-(3-chloro-2-methylanilino)-2-(3-{[(2S)-1-methylpyrrolidin-2-yl]methoxy}pyridin-4-yl)-1,5,6,7-tetrahydro-4H-pyrrolo[3,2-c]pyridin-4-one], the IC50 with Ba/F3-EGFR-WT cells (setting [2]) was determined as 1480 nM; with Ba/F3-EGFR-insSVD cells (setting [3]) it was 46.3 nM; in test [1], 0.727 nM.

Turning to `COc1c(F)cccc1Nc1c(-c2ccncc2OCCN(C)C)[nH]c2c1C(=O)NCC2` [Example 53, 2-{3-[2-(dimethylamino)ethoxy]pyridin-4-yl}-3-(3-fluoro-2-methoxyanilino)-1,5,6,7-tetrahydro-4H-pyrrolo[3,2-c]pyridin-4-one], the half-maximal inhibitory concentration (IC50) is 804 nM in the test on Ba/F3-EGFR-WT cells (setting [2]), 31.1 nM with Ba/F3-EGFR-insSVD cells (setting [3]) and 0.332 nM in test [1].

As for `COC(C)(C)COc1cnccc1-c1[nH]c2c(c1Nc1cc(F)cc(F)c1C)C(=O)NCC2` [Example 40, 3-(3,5-difluoro-2-methylanilino)-2-[3-(2-methoxy-2-methylpropoxy)pyridin-4-yl]-1,5,6,7-tetrahydro-4H-pyrrolo[3,2-c]pyridin-4-one], the figures for the IC50 (in the test with Ba/F3-EGFR-WT cells (setting [2]); with Ba/F3-EGFR-insSVD cells (setting [3]); in test [1]) were 1450 nM, 50.5 nM and 0.0994 nM, respectively.

`O=C1NCCc2[nH]c(-c3ccncc3OC[C@@H]3CCCO3)c(Nc3cccc(Cl)c3Cl)c21` [Example 70, 3-(2,3-dichloroanilino)-2-(3-{[(2S)-oxolan-2-yl]methoxy}pyridin-4-yl)-1,5,6,7-tetrahydro-4H-pyrrolo[3,2-c]pyridin-4-one]: the values for the IC50 (in the test on Ba/F3-EGFR-WT cells (setting [2]); in the test with Ba/F3-EGFR-insSVD cells (setting [3]); in test [1]) were 297 nM, 16.1 nM and 0.0918 nM, respectively.

Regarding `COc1c(F)cccc1Nc1c(-c2ccncc2OCC2CCCO2)[nH]c2c1C(=O)NCC2` (stereo not drawn) [Example 86, 3-(3-fluoro-2-methoxyanilino)-2-{3-[(oxolan-2-yl)methoxy]pyridin-4-yl}-1,5,6,7-tetrahydro-4H-pyrrolo[3,2-c]pyridin-4-one], the IC50 was 377 nM in the test on Ba/F3-EGFR-WT cells (setting [2]), 12.8 nM in the test with Ba/F3-EGFR-insSVD cells (setting [3]) and 0.122 nM in test [1].

`CN1CCC[C@H]1COc1cnccc1-c1[nH]c2c(c1Nc1cccc(Cl)c1Cl)C(=O)NCC2` [Example 71, 3-(2,3-dichloroanilino)-2-(3-{[(2S)-1-methylpyrrolidin-2-yl]methoxy}pyridin-4-yl)-1,5,6,7-tetrahydro-4H-pyrrolo[3,2-c]pyridin-4-one]: the IC50 in the test with Ba/F3-EGFR-WT cells (setting [2]) is 781 nM; in the test on Ba/F3-EGFR-insSVD cells (setting [3]) it was 20.2 nM; in test [1], 0.258 nM.

In the case of `COc1c(F)cccc1Nc1c(-c2ccncc2OCC(C)(C)N2CCOCC2)[nH]c2c1C(=O)NCC2` [Example 75, 3-(3-fluoro-2-methoxyanilino)-2-{3-[2-methyl-2-(morpholin-4-yl)propoxy]pyridin-4-yl}-1,5,6,7-tetrahydro-4H-pyrrolo[3,2-c]pyridin-4-one], the 50% inhibitory concentration (IC50) came to 2360 nM in the test on Ba/F3-EGFR-WT cells (Mus musculus, BaF3, Table 10, plated with 10 ng/mL EGF, 48 h); 98 nM in the test with Ba/F3-EGFR-insSVD cells (Mus musculus, BaF3, Table 10, plated without EGF, 48 h); 0.903 nM in test [1].

`CC(C)(O)COc1cnccc1-c1[nH]c2c(c1Nc1cccc(F)c1OC(F)F)C(=O)NCC2` [Example 73, 3-[2-(difluoromethoxy)-3-fluoroanilino]-2-[3-(2-hydroxy-2-methylpropoxy)pyridin-4-yl]-1,5,6,7-tetrahydro-4H-pyrrolo[3,2-c]pyridin-4-one]: the IC50 with Ba/F3-EGFR-WT cells (setting [2]) was determined as 2520 nM; in the test with Ba/F3-EGFR-insSVD cells (setting [3]), 416 nM; in test [1] it was 0.167 nM.

Consider `COc1c(F)cccc1Nc1c(-c2ccncc2OCC2CCCO2)[nH]c2c1C(=O)NCC2` (single isomer, unassigned; enantiomer 2) [Example 89, 3-(3-fluoro-2-methoxyanilino)-2-{3-[(oxolan-2-yl)methoxy]pyridin-4-yl}-1,5,6,7-tetrahydro-4H-pyrrolo[3,2-c]pyridin-4-one (enantiomer 2)], for which the 50% inhibitory concentration (IC50) with Ba/F3-EGFR-WT cells (Table 10, plated with 10 ng/mL EGF, 48 h) stood at 252 nM; in the test on Ba/F3-EGFR-insSVD cells (setting [4]) it was 12.8 nM; in test [1], 0.108 nM.

Consider `Cc1c(F)cc(F)cc1Nc1c(-c2ccncc2OCC(C)(C)N(C)C)[nH]c2c1C(=O)NCC2` [Example 62, 3-(3,5-difluoro-2-methylanilino)-2-{3-[2-(dimethylamino)-2-methylpropoxy]pyridin-4-yl}-1,5,6,7-tetrahydro-4H-pyrrolo[3,2-c]pyridin-4-one], for which the half-maximal inhibitory concentration (IC50) amounted to 2760 nM in the test with Ba/F3-EGFR-WT cells (setting [2]), 166 nM in the test on Ba/F3-EGFR-insSVD cells (setting [3]) and 0.663 nM in test [1].

With `COc1c(F)cccc1Nc1c(-c2ccncc2OCC(C)(C)N(C)C)[nH]c2c1C(=O)NCC2` [Example 74, 2-{3-[2-(dimethylamino)-2-methylpropoxy]pyridin-4-yl}-3-(3-fluoro-2-methoxyanilino)-1,5,6,7-tetrahydro-4H-pyrrolo[3,2-c]pyridin-4-one], the IC50 in the test on Ba/F3-EGFR-WT cells (setting [2]) was found to be 4070 nM; in the test on Ba/F3-EGFR-insSVD cells (setting [3]) it was 97.9 nM; in test [1], 0.865 nM.

Regarding `CCc1c(F)cccc1Nc1c(-c2ccncc2OCC(C)(C)OC)[nH]c2c1C(=O)NCC2` [Example 35, 3-(2-ethyl-3-fluoroanilino)-2-[3-(2-methoxy-2-methylpropoxy)pyridin-4-yl]-1,5,6,7-tetrahydro-4H-pyrrolo[3,2-c]pyridin-4-one], the IC50 with Ba/F3-EGFR-WT cells (setting [2]) came to 428 nM; in the test with Ba/F3-EGFR-insSVD cells (setting [3]) it was 7.98 nM; in test [1] it was 0.185 nM.

`COc1c(Cl)cccc1Nc1c(-c2ccncc2OCC2CCCCN2C)[nH]c2c1C(=O)NCC2` (stereo not drawn) [Example 63, 3-(3-chloro-2-methoxyanilino)-2-(3-{[1-methylpiperidin-2-yl]methoxy}pyridin-4-yl)-1,5,6,7-tetrahydro-4H-pyrrolo[3,2-c]pyridin-4-one]: the IC50 came to 485 nM in the test on Ba/F3-EGFR-WT cells (setting [2]), 12.3 nM in the test with Ba/F3-EGFR-insSVD cells (setting [3]) and 0.509 nM in test [1].

These data come from patent publication US11339157B1, “4H-pyrrolo[3,2-c]pyridin-4-one derivatives” (Bayer Aktiengesellschaft, priority 2017, dated 2022).
